Converted amounts (≈) assume the structure as drawn. Read-outs that look alike come from different tables or passages of the source.
Columns and labels:
E. coli ATCC 25922 = experiment: MIC, agar dilution; format: cell-based
S. aureus UBMS 88-4 = experiment: MIC, agar dilution; format: cell-based
S. mariescens FPOR 8733 = experiment: MIC, agar dilution; format: cell-based
S. aureus IVES 2943 = experiment: MIC, agar dilution; format: cell-based
[1] = system: S. aureus UBMS 90-1 Tet M; experiment: microbe, parasite or virus in culture; format: cell-based
S. aureus ROSE (MP) = experiment: MIC, agar dilution; format: cell-based
S. aureus ATCC 29213 = experiment: MIC, agar dilution; format: cell-based; conditions: S. aureus ATCC 29213
S. aureus SMITH (MP) = experiment: MIC, agar dilution; format: cell-based; conditions: Staphylococcus aureus, 18 h; S. aureus SMITH (MP); read-out: MIC
S. aureus IVES 1 983 = experiment: MIC, agar dilution; format: cell-based
S. aureus NEMC 8769 = experiment: MIC, agar dilution; format: cell-based; conditions: S. aureus NEMC 8769
E. coli J3272 Tet C = experiment: microbe, parasite or virus in culture; format: cell-based
[2] = system: Wild Type S30 (wild type ribosomes, E. coli strain MRE600, tetracycline sensitive); experiment: E. coli in vitro protein translation system, wild type S30
E. coli BAJ9003 IMP MUT = experiment: microbe, parasite or virus in culture; format: cell-based; conditions: Escherichia coli, BAJ9003IMPMUT, 18 h
[3] = system: Ps. acruginosa ATCC 27853; experiment: MIC, agar dilution; format: cell-based
[4] = system: S. aureus UBMS 90-2 Tet M; experiment: microbe, parasite or virus in culture; format: cell-based
E. coli J2175 = experiment: MIC, agar dilution; format: cell-based
E. coli UBMS 88-1 Tet B = experiment: microbe, parasite or virus in culture; format: cell-based
E. coli UBMS 89-1 Tet M = experiment: microbe, parasite or virus in culture; format: cell-based
E. coli UBMS 90-5 = experiment: MIC, agar dilution; format: cell-based
[5] = system: E. coli UBMS 89-2 Tet sens.; experiment: MIC, agar dilution; format: cell-based
E. faecalis ATCC 29212 = experiment: MIC, agar dilution; format: cell-based
E. coli J3272 Tet D = experiment: microbe, parasite or virus in culture; format: cell-based
[6] = system: E. coli MC 4100 TNIOC Tet B; experiment: microbe, parasite or virus in culture; format: cell-based
[7] = system: S. aureus UBMS 88-5 Tet M; experiment: microbe, parasite or virus in culture; format: cell-based
E. coli #311 (MP) = experiment: MIC, agar dilution; format: cell-based
S. aureus UBMS 90-3 = experiment: MIC, agar dilution; format: cell-based
E. coli J3272 Tet sens. = experiment: MIC, agar dilution; format: cell-based
Enterococcus 12201 = experiment: MIC, agar dilution; format: cell-based; conditions: Enterococcus 12201
E. coli PRP1 Tet A = experiment: microbe, parasite or virus in culture; format: cell-based; conditions: E. coli PRP1 Tet A
[8] = system: S. hemolyticus AVHAH 88-3; experiment: MIC, agar dilution; format: cell-based; conditions: S. hemolyticus AVHAH 88-3
E. coli UBMS 90-4 Tet M = experiment: microbe, parasite or virus in culture; format: cell-based; conditions: E. coli UBMS 90-4 Tet M
[9] = system: S. aureus UBMS 88-7 Tet K; experiment: microbe, parasite or virus in culture; format: cell-based; conditions: S. aureus UBMS 88-7 Tet K

## CN(C)c1ccc(O)c2c1C[C@H]1C[C@H]3[C@H](N(C)C)C(O)=C(C(N)=O)C(=O)[C@@]3(O)C(O)=C1C2=O [O, Minocycline, reference compound]
E. coli ATCC 25922; Escherichia coli, ATCC25922, 18 h
  MIC: 0.5 µg/mL (≈ 1.09 µM)
S. aureus UBMS 88-4; Staphylococcus aureus, UBMS884, 18 h
  MIC: 0.03 µg/mL (≈ 0.0656 µM)
S. mariescens FPOR 8733; 18 h, read-out: MIC
  MIC: 2 µg/mL (≈ 4.37 µM)
S. aureus IVES 2943; Staphylococcus aureus, IVES2943, 18 h
  MIC: 2 µg/mL (≈ 4.37 µM)
[1]; Staphylococcus aureus, UBMS901TETM, 18 h
  MIC: 4 µg/mL (≈ 8.74 µM)
S. aureus ROSE (MP); Staphylococcus aureus, 18 h
  MIC: 0.5 µg/mL (≈ 1.09 µM)
S. aureus ATCC 29213; Staphylococcus aureus, ATCC29213, 18 h, read-out: MIC
  MIC: 0.03 µg/mL (≈ 0.0656 µM)
S. aureus SMITH (MP)
  MIC: 0.03 µg/mL (≈ 0.0656 µM)
S. aureus IVES 1 983; Staphylococcus aureus, IVES1983, 18 h
  MIC: 2 µg/mL (≈ 4.37 µM)
S. aureus NEMC 8769; Staphylococcus aureus, NEMC8769, 18 h, read-out: MIC
  MIC: < 0.015 µg/mL
E. coli J3272 Tet C; Escherichia coli, J3272TETC, 18 h
  MIC: 2 µg/mL (≈ 4.37 µM)
[2]; Conc. 0.06 mg/ml
  % Inhibition Wild Type S30: 78%
[2]; Conc. 1.0 mg/ml
  % Inhibition Wild Type S30: 98%
[2]; coupled transcription and translation system
  inhibition of protein synthesis occuring on wild type ribosomes: effectively inhibit protein synthesis
E. coli BAJ9003 IMP MUT
  MIC: 0.03 µg/mL (≈ 0.0656 µM)
[3]; 18 h
  MIC: 8 µg/mL (≈ 17.5 µM)
[4]; Staphylococcus aureus, UBMS902TETM, 18 h
  MIC: 2 µg/mL (≈ 4.37 µM)
E. coli J2175; Escherichia coli, J2175, 18 h
  MIC: 0.5 µg/mL (≈ 1.09 µM)
E. coli UBMS 88-1 Tet B; Escherichia coli, UBMS881TETB, 18 h
  MIC: 16 µg/mL (≈ 35 µM)
E. coli UBMS 89-1 Tet M; Escherichia coli, UBMS891TETM, 18 h
  MIC: 8 µg/mL (≈ 17.5 µM)
E. coli UBMS 90-5; Escherichia coli, UBMS905, 18 h, read-out: MIC
  MIC: 0.5 µg/mL (≈ 1.09 µM)
[5]; Escherichia coli, 18 h
  MIC: 0.5 µg/mL (≈ 1.09 µM)
E. faecalis ATCC 29212; Enterococcus faecalis, ATCC29212, 18 h
  MIC: 1 µg/mL (≈ 2.19 µM)
E. coli J3272 Tet D; Escherichia coli, J3272TETD, 18 h
  MIC: 8 µg/mL (≈ 17.5 µM)
[6]; Escherichia coli, 18 h
  MIC: 8 µg/mL (≈ 17.5 µM)
[7]; Staphylococcus aureus, UBMS885TETM, 18 h
  MIC: 4 µg/mL (≈ 8.74 µM)
E. coli #311 (MP); Escherichia coli, 18 h
  MIC: 0.25 µg/mL (≈ 0.546 µM)
S. aureus UBMS 90-3; Staphylococcus aureus, UBMS903, 18 h
  MIC: 0.03 µg/mL (≈ 0.0656 µM)
E. coli J3272 Tet sens.; Escherichia coli, 18 h, read-out: MIC
  MIC: 0.5 µg/mL (≈ 1.09 µM)

## [4S-(4alpha,12aalpha)]-9-[(Bromoacetyl)amino]-4,7-bis(dimethylamino)-1,4,4a,5,5a,6, 11,12a-octahydro-3,10,12,12a-tetrahydroxy-1, 11-dioxo-2-naphthacenecarboxamide dihydrochloride
E. coli ATCC 25922; E. coli ATCC 25922
  MIC: 16 µg/mL
S. mariescens FPOR 8733
  MIC: > 32 µg/mL
[1]; S. aureus UBMS 90-1 Tet M
  MIC: 1 µg/mL
Enterococcus 12201
  MIC: 1 µg/mL
S. aureus ATCC 29213
  MIC: 0.5 µg/mL
S. aureus IVES 1 983; S. aureus IVES 1 983
  MIC: 4 µg/mL
S. aureus NEMC 8769
  MIC: 0.12 µg/mL
E. coli J3272 Tet C; E. coli J3272 Tet C
  MIC: > 32 µg/mL
[3]; Ps. acruginosa ATCC 27853
  MIC: > 32 µg/mL
E. coli J2175; E. coli J2175
  MIC: 32 µg/mL
E. coli UBMS 89-1 Tet M; E. coli UBMS 89-1 Tet M
  MIC: 4 µg/mL
E. coli UBMS 90-5
  MIC: 16 µg/mL
[5]; E. coli UBMS 89-2 Tet sens.
  MIC: 32 µg/mL
E. faecalis ATCC 29212; E. faecalis ATCC 29212
  MIC: 0.5 µg/mL
E. coli J3272 Tet D; E. coli J3272 Tet D
  MIC: 32 µg/mL
[6]; E. coli MC 4100 TNIOC Tet B
  MIC: > 32 µg/mL
E. coli PRP1 Tet A
  MIC: > 32 µg/mL
[7]; S. aureus UBMS 88-5 Tet M
  MIC: 1 µg/mL
E. coli #311 (MP); E. coli #311 (MP)
  MIC: 8 µg/mL
S. aureus UBMS 90-3; S. aureus UBMS 90-3
  MIC: 0.5 µg/mL
E. coli J3272 Tet sens.
  MIC: 16 µg/mL

## [7S-(7alpha,10aalpha)]-N-[9-(Aminocarbonyl)-4,7-bis(dimethylamino)-5,5a,6,6a,7,10,10a,12-octahydro-1,8,10a,11-tetrahydroxy-10,12-dioxo-2-naphthacenyl]-4-thiomorpholineacetamide dihydrochloride [F]
E. coli ATCC 25922; E. coli ATCC 25922
  MIC: 32 µg/mL
S. aureus UBMS 88-4; S. aureus UBMS 88-4
  MIC: 1 µg/mL
[8]
  MIC: 4 µg/mL
S. mariescens FPOR 8733
  MIC: > 32 µg/mL
S. aureus IVES 2943; S. aureus IVES 2943
  MIC: 4 µg/mL
[1]; S. aureus UBMS 90-1 Tet M
  MIC: 1 µg/mL
Enterococcus 12201
  MIC: 1 µg/mL
S. aureus ROSE (MP); S. aureus ROSE (MP)
  MIC: 8 µg/mL
S. aureus ATCC 29213
  MIC: 1 µg/mL
S. aureus IVES 1 983; S. aureus IVES 1 983
  MIC: 4 µg/mL
E. coli J3272 Tet C; E. coli J3272 Tet C
  MIC: > 32 µg/mL
[3]; Ps. acruginosa ATCC 27853
  MIC: > 32 µg/mL
[4]; S. aureus UBMS 90-2 Tet M
  MIC: 1 µg/mL
E. coli UBMS 90-4 Tet M
  MIC: > 32 µg/mL
E. coli J2175; E. coli J2175
  MIC: > 32 µg/mL
E. coli UBMS 88-1 Tet B; E. coli UBMS 88-1 Tet B, 18 hours at 35° C.
  MIC: > 32 µg/mL
E. coli UBMS 89-1 Tet M; E. coli UBMS 89-1 Tet M
  MIC: > 32 µg/mL
E. coli UBMS 90-5
  MIC: > 32 µg/mL
[5]; E. coli UBMS 89-2 Tet sens.
  MIC: > 32 µg/mL
E. faecalis ATCC 29212; E. faecalis ATCC 29212
  MIC: 0.25 µg/mL
E. coli J3272 Tet D; E. coli J3272 Tet D
  MIC: 16 µg/mL
[6]; E. coli MC 4100 TNIOC Tet B
  MIC: > 32 µg/mL
E. coli PRP1 Tet A
  MIC: > 32 µg/mL
[9]
  MIC: 4 µg/mL
E. coli #311 (MP); E. coli #311 (MP)
  MIC: > 32 µg/mL
S. aureus UBMS 90-3; S. aureus UBMS 90-3
  MIC: 1 µg/mL
E. coli J3272 Tet sens.
  MIC: > 32 µg/mL

Reference: patent US5328902A, “7-(substituted)-9-[(substituted glycyl)amido]-6-demethyl-6-deoxytetracyclines” (American Cyanamid Co., priority 1992, dated 1994)
